This is an account of results in EP4052593B1, “TOBACCO FILLER FOR HEAT-NOT-BURN TOBACCO PRODUCTS, HEAT-NOT-BURN TOBACCO PRODUCT, AND ELECTRICALLY HEATED TOBACCO PRODUCT” (Japan Tobacco Inc., priority 2019, dated 2021).

Data set [1] is described as follows: Measurement of count median diameter of residual aerosol in dilution with DMS (differential mobility spectrometer). The data set is classed as physicochemical. Particulars: for Count median diameter: Experimental Example 1, DMS, reduced pressure 0.25 bar, primary dilution 25 L/min, secondary dilution 200-fold, weight addition ratio of Table 1; for count median diameter (result in words): Experimental Example 1, DMS. The text has this: Since the DMS measures an aerosol under reduced pressure (0.25 bar) and a high dilution condition, an aerosol with high volatility is easily vanished and gasified. In the case of an aerosol with relatively low volatility, a particle diameter distribution is obtained in terms of residual aerosol, although the aerosol is reduced by volatilization. In this case, if the diameters of generated aerosol particles are the same, the particle diameter distribution of the residual aerosol varies depending of the level of volatility. In this Example, a peak particle diameter based on the number is considered to indicate the stability under reduced pressure and a high dilution condition and thus is used as the index. A larger count median diameter means that an aerosol is more stably present, and a smaller count median diameter means that an aerosol is more unstable. Under the conditions of this experiment, the primary dilution was performed at 25 L/min, and the secondary dilution was set to 200-fold and performed. Note that a mass peak particle diameter immediately after the generation before dilution and pressure reduction were involved was also separately measured with Spraytec (Model STP5321, Malvern), and, in the types of additives and the range of the amounts of additives added in this Example, there was no difference, and the count median diameters were present at about 200 nm.

Data set [2] in a line: Measurement of solubility in glycerin (GC-FID). The data set is classed as physicochemical. Particulars: Experimental Example 1, excess fatty acid in 2 g glycerin, standing 48 hours. The procedure:
The solubility in glycerin is most preferably measured by a method for quantitatively determining a fatty acid dissolved in 2 g of glycerin. Specifically, after an excessive amount of a fatty acid is added to glycerin, the mixture is separated into two layers, for example, by standing at ordinary temperature for 24 hours or more or by centrifugal separation, 100 mg aliquot of glycerin is taken, and transferred and dissolved into 2 mL of methanol, and the amount of fatty acid dissolved in glycerin is quantitatively determined by gas chromatograph-flame ionized detector (GC-FID) or gas chromatograph-mass spectrometer (GC-MS).
If the amount of fatty acid excessively added is large, the separation into two layers becomes difficult, and thus it is necessary to add the fatty acid in a slightly excessive amount.

For the compound `CCCCCCCC(=O)O` [Comparative Example 2, Octanoic acid], in data set [1], the Count median diameter stood at 38.7 nm.
Consider `CCCCCCCCCC(=O)O` [Comparative Example 3, Decanoic acid], for which the Count median diameter in data set [1] is given as 50.5 nm.
For the compound `CCCCCCCCCCCCCC(=O)O` [Comparative Example 4, Myristic acid], in data set [2], the Solubility in glycerin is recorded as 0.14 mg/g. Moreover, in data set [1], the Count median diameter is 51.6 nm.
Compound `CCCCCCCCCCCCCCCCCCC(=O)O` [Comparative Example 5, Nonadecanoic acid] had a Solubility in glycerin in data set [2] of 0.09 mg/g. For the same compound, the Count median diameter in data set [1] turned out to be 74.6 nm.
`CC/C=C\C/C=C\C/C=C\CCCCCCCC(=O)O` [Comparative Example 6, Linolenic acid] came in with a Solubility in glycerin in data set [2] of 0.32 mg/g.
For the compound `CCCCC/C=C\C/C=C\CCCCCCCC(=O)O` [Comparative Example 7, Linoleic acid], the Solubility in glycerin in data set [2] is 0.14 mg/g. Further, the Count median diameter in data set [1] was determined as 61.9 nm.
The corresponding values for `CCCCCCCC/C=C\CCCCCCCC(=O)O` [Comparative Example 8, Oleic acid] are 1.82 mg/g and 55.1 nm.
As for `CCCCCCCCCCCCCCCC(=O)O` [Example 1, Palmitic acid], in data set [1], the Count median diameter came out at 67.8 nm.
As for `CCCCCCCCCCCCCCCCCC(=O)O` [Example 2, Stearic acid], in data set [1], the “count median diameter (result in words)” value was “large count median diameters” and the Count median diameter came out at 75.3 nm.
`CCCCCCCCCCCCCCCC(=O)O` [palmitic acid]: the “count median diameter (result in words)” value in data set [1] is “large count median diameters”.
